From US6376495B1, “Antidiabetic piperazine derivatives, processes for their preparation and compositions containing them” (Merck Patent Gesellschaft, priority 1998, dated 2002)

Assays:
[1] = system: experimental model of non-insulin-dependent diabetes induced in the rat by streptozotocin; experiment: Study of the antidiabetic activity in the rat (glycaemia, oral route); type: in vivo; details: diabetic rats 8 weeks old; for % of glycaemia at D1 (percentage of change in the glycaemia with respect to D0): after treatment for 1 day; for % of glycaemia at D4 (percentage of change in the glycaemia with respect to D0): after treatment for 4 days
Method: The antidiabetic activity of the compounds of formula I by the oral route was determined on an experimental model of non-insulin-dependent diabetes induced in the rat by streptozotocin.
The model of non-insulin-dependent diabetes is obtained in the rat by a neonatal injection (on the day of birth) of streptozotocin.
The diabetic rats used are 8 weeks old. The animals are kept, from the day of their birth to the day of the experiment, in an animal house at a regulated temperature of 21 to 22° C. and are subjected to a fixed cycle of light (from 7 h to 19 h) and of darkness (from 19 h to 7 h). Their diet consisted of a maintenance diet; water and food were provided “ad libitum”, with the exception of the 2 hours of fasting preceding the tests, where food is withdrawn (post-absorptive state).
The rats are treated by the oral route, during the day, with the test product. Two hours after the final administration of the product and 30 minutes after anaesthetizing the animals with sodium pentobarbital (Nembutal®), a 300-μl blood sample is withdrawn at the end of the tail in order to determine the glycaemia.
at D1 (after treatment for 1 day) with respect to D0 (before treatment); and
at D4 (after treatment for 4 days) with respect to D0 (before treatment) for 2 different administration doses (20 mg/kg/day and 200 mg/kg/day) of active principle.

[2] = system: experimental model of non-insulin-dependent diabetes induced in the rat by streptozotocin; experiment: Study of the hypolipidaemic activity in the rat (total cholesterol, total triglycerides); type: in vivo; details: oral route for 7 days, sample 18 h after final administration, diabetic rats 6 months old
Method: The hypolipidaemic activity of the compounds of formula I by the oral route was determined on an experimental model of non-insulin-dependent diabetes induced in the rat by streptozotocin.
The model of non-insulin-dependent diabetes is obtained in the rats by a neonatal injection (5 days after birth) of streptozotocin.
The diabetic rats used are 6 months old. The animals are kept, from the day of their birth to the day of the experiment, in an animal house at a regulated temperature of 21 to 22° C. and are subjected to a fixed cycle of light (from 7 h to 19 h) and of darkness (from 19 h to 7 h).
Their diet consisted of a maintenance diet; water and food were provided “ab [sic] libitum”, with the exception of the 18 hours of fasting preceding the withdrawals of the blood samples on which the lipid balances will be carried out.
The rats are treated by the oral route with the compound of Example 1 for 7 days. A 300-μl sample is withdrawn 18 h after the final administration of this compound.
The total cholesterol was quantitatively determined by the CHOE/CHOD/POD Trinder method as an end point (Instrumentation Laboratory reagent [lacuna] on a Monarch plus analyser (Instrumentation Laboratory).
The total triglycerides were quantitatively determined by the GPO/Trinder method as an end point (Sigma Diagnostic reagent) on a Monarch analyser (Instrumentation Laboratory).

SMILES: COc1cccc(N2CCN(CCOc3ccc(CC(=O)O)cc3)CC2)c1 [Example 1, (4-{2-[4-(3-methoxyphenyl)-piperazin-1-yl]ethoxy}phenyl) acetic acid]
- % of glycaemia at D1 (percentage of change in the glycaemia with respect to D0) ([1]; 20 mg/kg/day): −8%
- % of glycaemia at D4 (percentage of change in the glycaemia with respect to D0) ([1]; 20 mg/kg/day): −10%
- % of glycaemia at D1 (percentage of change in the glycaemia with respect to D0) ([1]; 200 mg/kg/day): −24%
- % of glycaemia at D4 (percentage of change in the glycaemia with respect to D0) ([1]; 200 mg/kg/day): −34%
- TOTAL CHOLESTEROL ([2]; in the absence of treatment 90): 79 mg/dL
- TOTAL TRIGLYCERIDES ([2]; in the absence of treatment 167): 102 mg/dL
- melting point: 158 to 160 °C
